Assay results as given in patent publication US20120029187A1, “HALOALKYLSULFONANILIDE DERIVATIVE” (Nissan Chemical Industries, Ltd., priority 2009, published 2012).

Columns and labels:
Format in all cases: in vivo
[1] = system: barnyardgrass; test: Test Example 1: herbicidal effects in preemergence treatment under submerged conditions; details: dose 2.52 g/a
How it was run: (§1)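 Score 0–5 by mortality (5: ≥90%; 0: <5%), read 3 weeks post-application. Paddy-type cups: alluvial soil under 4 cm water, weeds seeded plus transplanted 2.5-leaf rice; diluted EC dosed onto water surface same day as sowing, g/a basis; greenhouse 25 to 30° C.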

[2] = system: bulrush; test: as above; details: dose 2.52 g/a
How it was run: as §1

[3] = system: ducksalad; test: as above; details: dose 2.52 g/a
How it was run: as §1

[4] = system: transplanted rice; test: Test Example 1: preemergence treatment under submerged conditions, effect on crop; details: dose 2.52 g/a
How it was run: as §1

[5] = system: barnyardgrass; test: Test Example 2: herbicidal effects during the vegetation period under submerged conditions; details: treatment during the vegetation period under submerged conditions; dose 2.52 g/a
How it was run: (§2)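 Barnyardgrass, bulrush and ducksalad were co-sown in alluvial soil flooded to 4 cm and grown in a greenhouse at 25 to 30° C. At the 1- or 2-leaf stage, water-diluted emulsifiable concentrates went onto the water surface at set doses (g/a). Herbicidal effect was scored three weeks later on a graded scale.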

[6] = system: bulrush; test: as above; details: treatment during the vegetation period under submerged conditions; dose 2.52 g/a
How it was run: as §2

[7] = system: ducksalad; test: as above; details: treatment during the vegetation period under submerged conditions; dose 2.52 g/a
How it was run: as §2

[8] = system: Italian ryegrass; test: Test Example 3: herbicidal effects in soil treatment; details: dose 6.3 g/a
How it was run: (§3)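 Seeds were sown in sterilized diluvial soil and covered with about 1.5 cm of soil. Compounds, formulated as emulsifiable concentrates and diluted with water, were sprayed evenly over the soil surface at set doses in g/a. Herbicidal effect was scored on a rating scale three weeks later.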

[9] = system: barnyardgrass; test: as above; details: dose 6.3 g/a
How it was run: as §3

[10] = system: common chickweed; test: as above; details: dose 6.3 g/a
How it was run: as §3

[11] = system: common lambsquater; test: as above; details: dose 6.3 g/a
How it was run: as §3

[12] = system: common ragweed; test: as above; details: dose 6.3 g/a
How it was run: as §3

[13] = system: giant foxtail; test: as above; details: dose 6.3 g/a
How it was run: as §3

[14] = system: large crabgrass; test: as above; details: dose 6.3 g/a
How it was run: as §3

[15] = system: posumbu knotweed; test: as above; details: dose 6.3 g/a
How it was run: as §3

[16] = system: redroot pigweed; test: as above; details: dose 6.3 g/a
How it was run: as §3

[17] = system: velvetleaf; test: as above; details: dose 6.3 g/a
How it was run: as §3

[18] = system: water foxtail; test: as above; details: dose 6.3 g/a
How it was run: as §3

[19] = system: wild oat; test: as above; details: dose 6.3 g/a
How it was run: as §3

[20] = system: Italian ryegrass; test: Test Example 4: herbicidal effect in foliage treatment; details: dose 6.3 g/a, three weeks after application
How it was run: (§4)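 A uniform foliar spray of emulsifiable concentrate, diluted with water to give the stated g/a dose, was applied to plants raised for 14 days from seed in sterilized diluvial soil at 25 to 30° C. Herbicidal effects were scored three weeks later.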

[21] = system: barnyardgrass; test: as above; details: dose 6.3 g/a, three weeks after application
How it was run: as §4

[22] = system: beadstraw; test: as above; details: dose 6.3 g/a, three weeks after application
How it was run: as §4

[23] = system: common chickweed; test: as above; details: dose 6.3 g/a, three weeks after application
How it was run: as §4

[24] = system: common lambsquater; test: as above; details: dose 6.3 g/a, three weeks after application
How it was run: as §4

[25] = system: common ragweed; test: as above; details: dose 6.3 g/a, three weeks after application
How it was run: as §4

[26] = system: giant foxtail; test: as above; details: dose 6.3 g/a, three weeks after application
How it was run: as §4

[27] = system: large crabgrass; test: as above; details: dose 6.3 g/a, three weeks after application
How it was run: as §4

[28] = system: posumbu knotweed; test: as above; details: dose 6.3 g/a, three weeks after application
How it was run: as §4

[29] = system: redroot pigweed; test: as above; details: dose 6.3 g/a, three weeks after application
How it was run: as §4

[30] = system: velvetleaf; test: as above; details: dose 6.3 g/a, three weeks after application
How it was run: as §4

[31] = system: water foxtail; test: as above; details: dose 6.3 g/a, three weeks after application
How it was run: as §4

[32] = system: wild oat; test: as above; details: dose 6.3 g/a, three weeks after application
How it was run: as §4

CC(C)COC(=O)N(c1ccccc1CN1CCOCC1=O)S(=O)(=O)C(F)(F)F [Compound I-3]
A: barnyardgrass, herbicidal effect (evaluation scale 0-5) [1]: 5 (mortality of 90% or above (nearly complete death)) | B: bulrush, herbicidal effect (evaluation scale 0-5) [2]: 5 (mortality of 90% or above (nearly complete death)) | C: ducksalad, herbicidal effect (evaluation scale 0-5) [3]: 5 (mortality of 90% or above (nearly complete death)) | a: transplanted rice, effect on crop (evaluation scale 0-5) [4]: 0 (mortality of less than 5% (almost ineffective)) | A: barnyardgrass, herbicidal effect (evaluation scale 0-5) [5]: 5 (mortality of 90% or above (nearly complete death)) | B: bulrush, herbicidal effect (evaluation scale 0-5) [6]: 5 (mortality of 90% or above (nearly complete death)) | C: ducksalad, herbicidal effect (evaluation scale 0-5) [7]: 5 (mortality of 90% or above (nearly complete death)) | H: Italian ryegrass, herbicidal effect (evaluation scale 0-5) [8]: 5 (mortality of 90% or above (nearly complete death)) | A: barnyardgrass, herbicidal effect (evaluation scale 0-5) [9]: 5 (mortality of 90% or above (nearly complete death)) | N: common chickweed, herbicidal effect (evaluation scale 0-5) [10]: 5 (mortality of 90% or above (nearly complete death)) | L: common lambsquater, herbicidal effect (evaluation scale 0-5) [11]: 5 (mortality of 90% or above (nearly complete death)) | J: common ragweed, herbicidal effect (evaluation scale 0-5) [12]: 4 (mortality of at least 70% and less than 90%) | E: giant foxtail, herbicidal effect (evaluation scale 0-5) [13]: 5 (mortality of 90% or above (nearly complete death)) | D: large crabgrass, herbicidal effect (evaluation scale 0-5) [14]: 5 (mortality of 90% or above (nearly complete death)) | M: posumbu knotweed, herbicidal effect (evaluation scale 0-5) [15]: 3 (mortality of at least 40% and less than 70%) | K: redroot pigweed, herbicidal effect (evaluation scale 0-5) [16]: 3 (mortality of at least 40% and less than 70%) | I: velvetleaf, herbicidal effect (evaluation scale 0-5) [17]: 5 (mortality of 90% or above (nearly complete death)) | G: water foxtail, herbicidal effect (evaluation scale 0-5) [18]: 5 (mortality of 90% or above (nearly complete death)) | F: wild oat, herbicidal effect (evaluation scale 0-5) [19]: 0 (mortality of less than 5% (almost ineffective)) | H: Italian ryegrass, herbicidal effect [20]: 3 (mortality of at least 40% and less than 70%) | A: barnyardgrass, herbicidal effect [21]: 5 (mortality of 90% or above (nearly complete death)) | O: beadstraw, herbicidal effect [22]: 4 (mortality of at least 70% and less than 90%) | N: common chickweed, herbicidal effect [23]: 4 (mortality of at least 70% and less than 90%) | L: common lambsquater, herbicidal effect [24]: 4 (mortality of at least 70% and less than 90%) | J: common ragweed, herbicidal effect [25]: 4 (mortality of at least 70% and less than 90%) | E: giant foxtail, herbicidal effect [26]: 4 (mortality of at least 70% and less than 90%) | D: large crabgrass, herbicidal effect [27]: 5 (mortality of 90% or above (nearly complete death)) | M: posumbu knotweed, herbicidal effect [28]: 0 (mortality of less than 5% (almost ineffective)) | K: redroot pigweed, herbicidal effect [29]: 2 (mortality of at least 20% and less than 40%) | I: velvetleaf, herbicidal effect [30]: 5 (mortality of 90% or above (nearly complete death)) | G: water foxtail, herbicidal effect [31]: 5 (mortality of 90% or above (nearly complete death)) | F: wild oat, herbicidal effect [32]: 0 (mortality of less than 5% (almost ineffective))

CCOC(=O)N(c1ccccc1CN1CCOC(C)C1=O)S(=O)(=O)C(F)(F)F (stereo not shown) [Compound I-5, 2-methyl-4-[2-(N-ethoxycarbonyl-N-trifluoromethanesulfonyl)aminobenzyl]-1,4-oxazinan-3-one]
A: barnyardgrass, herbicidal effect (evaluation scale 0-5) [1]: 5 (mortality of 90% or above (nearly complete death)) | B: bulrush, herbicidal effect (evaluation scale 0-5) [2]: 5 (mortality of 90% or above (nearly complete death)) | C: ducksalad, herbicidal effect (evaluation scale 0-5) [3]: 5 (mortality of 90% or above (nearly complete death)) | a: transplanted rice, effect on crop (evaluation scale 0-5) [4]: 0 (mortality of less than 5% (almost ineffective)) | A: barnyardgrass, herbicidal effect (evaluation scale 0-5) [5]: 5 (mortality of 90% or above (nearly complete death)) | B: bulrush, herbicidal effect (evaluation scale 0-5) [6]: 5 (mortality of 90% or above (nearly complete death)) | C: ducksalad, herbicidal effect (evaluation scale 0-5) [7]: 5 (mortality of 90% or above (nearly complete death)) | H: Italian ryegrass, herbicidal effect (evaluation scale 0-5) [8]: 1 (mortality of at least 5% and less than 20%) | A: barnyardgrass, herbicidal effect (evaluation scale 0-5) [9]: 5 (mortality of 90% or above (nearly complete death)) | N: common chickweed, herbicidal effect (evaluation scale 0-5) [10]: 5 (mortality of 90% or above (nearly complete death)) | L: common lambsquater, herbicidal effect (evaluation scale 0-5) [11]: 5 (mortality of 90% or above (nearly complete death)) | J: common ragweed, herbicidal effect (evaluation scale 0-5) [12]: 4 (mortality of at least 70% and less than 90%) | E: giant foxtail, herbicidal effect (evaluation scale 0-5) [13]: 5 (mortality of 90% or above (nearly complete death)) | D: large crabgrass, herbicidal effect (evaluation scale 0-5) [14]: 5 (mortality of 90% or above (nearly complete death)) | M: posumbu knotweed, herbicidal effect (evaluation scale 0-5) [15]: 4 (mortality of at least 70% and less than 90%) | K: redroot pigweed, herbicidal effect (evaluation scale 0-5) [16]: 4 (mortality of at least 70% and less than 90%) | I: velvetleaf, herbicidal effect (evaluation scale 0-5) [17]: 4 (mortality of at least 70% and less than 90%) | G: water foxtail, herbicidal effect (evaluation scale 0-5) [18]: 5 (mortality of 90% or above (nearly complete death)) | F: wild oat, herbicidal effect (evaluation scale 0-5) [19]: 3 (mortality of at least 40% and less than 70%) | H: Italian ryegrass, herbicidal effect [20]: 4 (mortality of at least 70% and less than 90%) | A: barnyardgrass, herbicidal effect [21]: 5 (mortality of 90% or above (nearly complete death)) | O: beadstraw, herbicidal effect [22]: 3 (mortality of at least 40% and less than 70%) | N: common chickweed, herbicidal effect [23]: 4 (mortality of at least 70% and less than 90%) | L: common lambsquater, herbicidal effect [24]: 3 (mortality of at least 40% and less than 70%) | J: common ragweed, herbicidal effect [25]: 4 (mortality of at least 70% and less than 90%) | E: giant foxtail, herbicidal effect [26]: 4 (mortality of at least 70% and less than 90%) | D: large crabgrass, herbicidal effect [27]: 5 (mortality of 90% or above (nearly complete death)) | M: posumbu knotweed, herbicidal effect [28]: 4 (mortality of at least 70% and less than 90%) | K: redroot pigweed, herbicidal effect [29]: 3 (mortality of at least 40% and less than 70%) | I: velvetleaf, herbicidal effect [30]: 4 (mortality of at least 70% and less than 90%) | G: water foxtail, herbicidal effect [31]: 5 (mortality of 90% or above (nearly complete death)) | F: wild oat, herbicidal effect [32]: 2 (mortality of at least 20% and less than 40%)
